Where two headings read alike, the source gives them in different places.
Assays:
Type in all cases: cell-based, human
[1] = tested on: cancer cell lines; assay: Cell viability analysis (WST-1) on cancer cell lines; settings: drug 10 μM, 72 hours, WST-1; Table 3
[2] = tested on: LoVo (Colorectal Adenocarcinoma); assay: Cell viability analysis, colon cancer LoVo; settings: Homo sapiens, LoVo
[3] = tested on: HI650 (Lung Adenocarcinoma); assay: Cell viability analysis, lung cancer HI650; settings: Homo sapiens, drug 10 μM, 72 hours, WST-1, OD450 nm, read-out: cell viability (survival rate), H1650
[4] = tested on: A549 (Lung Adenocarcinoma); assay: Cell viability analysis, lung cancer A549; settings: Homo sapiens, drug 10 μM, 72 hours, WST-1, OD450 nm, read-out: cell viability (survival rate), A549
[5] = tested on: MKN-45 (Gastric Adenocarcinoma); assay: Cell viability analysis, gastric cancer MKN-45; settings: Homo sapiens, drug 10 μM, 72 hours, WST-1, OD450 nm, read-out: cell viability (survival rate), MKN-45
[6] = tested on: A375 (Amelanotic Melanoma); assay: Cell viability analysis, skin cancer A375; settings: Homo sapiens, drug 10 μM, 72 hours, WST-1, OD450 nm, read-out: cell viability (survival rate), A375
[7] = tested on: HL-60 (Acute Promyelocytic Leukemia); assay: Cell viability analysis, leukemia HL-60; settings: Homo sapiens, drug 10 μM, 72 hours, WST-1, OD450 nm, read-out: cell viability (survival rate), HL-60
[8] = tested on: HeLa (Cervix Adenocarcinoma); assay: Cell viability analysis, cervical cancer HeLa; settings: Homo sapiens, HeLa, drug 10 μM, 72 hours, WST-1, OD450 nm, read-out: cell viability (survival rate), HeLa
[9] = tested on: HepG2 (Hepatocellular Carcinoma); assay: Cell viability analysis, hepatic cancer HepG2; settings: Homo sapiens, drug 10 μM, 72 hours, WST-1, OD450 nm, read-out: cell viability (survival rate), HepG2
[10] = tested on: MCF7 (Mammary Gland, Adenocarcinoma); assay: Cell viability analysis, breast cancer MCF7; settings: Homo sapiens, drug 10 μM, 72 hours, WST-1, OD450 nm, read-out: cell viability (survival rate), MCF7
[11] = tested on: TSGH-8301 (Urinary Bladder Carcinoma); assay: Cell viability analysis, bladder cancer TSGH-8301; settings: Homo sapiens, drug 10 μM, 72 hours, WST-1, OD450 nm, read-out: cell viability (survival rate), TSGH
[12] = tested on: PC3 (p53−) (Prostate Adenocarcinoma); assay: Cell viability analysis, prostate cancer PC3; settings: Homo sapiens, drug 10 μM, 72 hours, WST-1, OD450 nm, read-out: cell viability (survival rate), PC3
[13] = tested on: AGS (Gastric Adenocarcinoma); assay: Cell viability analysis, gastric cancer AGS; settings: Homo sapiens, drug 10 μM, 72 hours, WST-1, OD450 nm, read-out: cell viability (survival rate), AGS

CC1(C)[C@H](C(=O)[O-])N2C(=O)C[C@H]2S1(=O)=O.[Na+] [Sulbactam sodium (Unasyn), Sulbactam sodium]
inhibition effect on different cancer cell lines [1]: significant inhibition effect

NCC[C@H](O)C(=O)N[C@@H]1C[C@H](N)[C@@H](O[C@H]2O[C@H](CN)[C@@H](O)[C@H](O)[C@H]2O)[C@H](O)[C@H]1O[C@H]1O[C@H](CO)[C@@H](O)[C@H](N)[C@H]1O.O=S(=O)(O)O.O=S(=O)(O)O [Amikacin sulfate]
inhibition effect on different cancer cell lines [1]: significant inhibition effect

Spiramycin
inhibition effect on different cancer cell lines [1]: significant inhibition effect

Cl.NC1CCN(c2c(F)cc3c(=O)c(C(=O)O)cn(C4CC4)c3c2Cl)C1 (stereo not shown) [Clinafoxacin HCl]
inhibition effect on different cancer cell lines [1]: significant inhibition effect

CN(C/C=C/C#CC(C)(C)C)Cc1cccc2ccccc12 [Terbinafine (Lamisil, Terbinex), Terbinafine]
viability at 10 µM ([2]; 72 h, read-out: cell viability (survival rate), LoVo, drug 10 μM, 72 hours, WST-1, OD450 nm): 94% | viability at 10 µM ([3]; NCI-H1650, 72 h): 104% | viability at 10 µM ([4]; A549, 72 h): 115% | viability at 10 µM ([5]; MKN-45, 72 h): 143% | viability at 10 µM ([6]; A-375, 72 h): 99.7% | viability at 10 µM ([7]; HL-60, 72 h): 95.2% | viability at 10 µM ([8]; 72 h): 65.2% | viability at 10 µM ([9]; HepG2, 72 h): 98.3% | viability at 10 µM ([10]; MCF7, 72 h): 104% | viability at 10 µM ([11]; 72 h): 109% | viability at 10 µM ([12]; 72 h): 140% | viability at 10 µM ([13]; 72 h): 137%

CCOC(=O)CCC(=O)O[C@H]1[C@H](O[C@@H]2[C@@H](C)[C@H](O[C@H]3C[C@@](C)(OC)[C@@H](O)[C@H](C)O3)[C@@H](C)C(=O)O[C@H](CC)[C@@](C)(O)[C@H](O)[C@@H](C)C(=O)[C@H](C)C[C@@]2(C)O)O[C@H](C)C[C@@H]1N(C)C [Erythromycin Ethylsuccinate]
viability at 10 µM ([2]; drug 10 μM, 72 hours, WST-1, OD450 nm, read-out: cell viability (survival rate), LoVo): 80% | viability at 10 µM ([3]; NCI-H1650): 83.8% | viability at 10 µM ([4]; A549): 90% | viability at 10 µM ([5]; MKN-45): 129% | viability at 10 µM ([6]; A-375): 75% | viability at 10 µM ([7]; HL-60): 83.6% | viability at 10 µM [8]: 148% | viability at 10 µM ([9]; HepG2): 97.1% | viability at 10 µM ([10]; MCF7): 88.2% | viability at 10 µM [11]: 125% | viability at 10 µM [12]: 112% | viability at 10 µM [13]: 111%

Reference: patent US10105357B2, “Indication of antibiotic drugs for preparation of cancer inhibition pharmaceutical composition” (LAUNX BIOMEDICAL CO., LTD., priority 2014, dated 2018)
